Source: the supplement of paper PMC10949913

What was measured:
Experiment in all cases: area under concentration-response curve (viability) (AUC (a.u.)); higher = less active
Settings in all cases: 48 h
CU-ACC1 = tested on: CU-ACC1
How it was run: (§1)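 Cells from three adrenocortical carcinoma lines were seeded at 500–1,000 cells/well in 5 µL medium in 1,536-well plates. Each library compound was added as 23 nL at 11 concentrations, and after 48 h CellTiter-Glo was added for 15 minutes at room temperature before reading luminescence. Plate-wise normalisation to vehicle and empty-well controls preceded curve fitting. AC50 and area under the curve were calculated only for inhibitory or non-responding curve classes.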

NCI-H295R = tested on: NCI-H295R
How it was run: as §1

CU-ACC2 = tested on: CU-ACC2
How it was run: as §1

Row | Compound | area under concentration-response curve (CU-ACC1) | area under concentration-response curve (NCI-H295R) | area under concentration-response curve (CU-ACC2)
1 | CCC(C)CNCC(=O)N1CCc2sccc2C1c1cccc(C)n1 (configuration not stated) | 531 | 571 | 622
2 | O=C(Nc1c(Cl)cncc1Cl)c1ccc(OC(F)F)c(OCC2CC2)c1 | 464 | 523 | 556
3 | c1cc(-c2sc(-c3ccncc3)c(-c3ccncc3)c2-c2ccncc2)ccn1 | 549 | 565 | 544
4 | c1coc(CNc2ncnc3nc[nH]c23)c1 | 409 | 565 | 556
5 | CNC(=O)c1c(-c2ccc(F)cc2)oc2cc(N(CCO)[S+](C)(=O)[O-])c(C3CC3)cc12 | 470 | 496 | 580
6 | O=C1[O][Pt]2([NH]C3CCCCC3[NH]2)[O]C1=O (configuration not stated) | 564 | 565 | 631
7 | C[C@]12CC[C@H]3[C@@H](C\C=C/4C[C@@H](O)CC[C@]34C)[C@@H]1CCC2=O | 523 | 479 | 591
8 | C[N+](C)([O-])CCNc1ccc(NCC[N+](C)(C)[O-])c2c1C(=O)c1c(O)ccc(O)c1C2=O | 505 | 496 | 540
9 | COC(=O)[C@H](Cc1ccccc1)NC(=O)[C@@H](N)CC(=O)O | 518 | 558 | 618
10 | CCCCN(CCCC)CC(O)c1cc(Cl)cc2c1-c1ccc(Cl)cc1/C2=C/c1ccc(Cl)cc1 (configuration not stated) | 546 | 582 | 631
11 | CN1CCC(CC1)COC2=CN=C(N=C2)C3=CC(=CC=C3)CN4/N=C(\C=C/C4=O)C5=CC(=CC=C5)C#N | 474 | 549 | 596
12 | O=C1CC[C@@]2(O)[C@H]3Cc4ccc(O)c5c4[C@@]2(CCN3CC2CC2)[C@H]1O5 | 413 | 559 | 623
13 | CN(C)c1ccc(O)c2c1C[C@H]1C[C@H]3[C@H](N(C)C)C(O)=C(C(N)=O)C(=O)[C@@]3(O)C(O)=C1C2=O | 453 | 473 | 524
14 | COc1ccccc1OCC(O)CN1CCN(CC(=O)Nc2c(C)cccc2C)CC1 (configuration not stated) | 535 | 569 | 627
15 | CN(C)C(=O)COC(=O)Cc1ccc(OC(=O)c2ccc(NC(=N)N)cc2)cc1 | 464 | 541 | 564
16 | C[N+]1(C)[C@@H]2CC(OC(=O)[C@H](CO)c3ccccc3)C[C@H]1[C@@H]1O[C@@H]12 (some centres not stated) | 531 | 500 | 556
17 | CSCC[C@H](NC(=O)[C@H](Cc1c[nH]c2ccccc12)NC(=O)CCNC(=O)OC(C)(C)C)C(=O)N[C@@H](CC(=O)O)C(=O)N[C@@H](Cc1ccccc1)C(N)=O | 495 | 545 | 579

Row | Compound | area under concentration-response curve (CU-ACC1) | area under concentration-response curve (NCI-H295R) | area under concentration-response curve (CU-ACC2)
18 | CCC(=O)O[C@@]1([C@H](C)C[C@H]2[C@@H]3C[C@H](F)\C4=C\C(=O)\C=C/[C@]4(C)[C@@]3(F)[C@@H](O)C[C@]12C)C(=O)SCF | 372 | 510 | 484
19 | CCOc1cc(/C=C2/C(=O)N(c3ccccc3)N=C2C)cc(Cl)c1OCC(=O)OC | 587 | 590 | 664
20 | C[C@H](NC(=O)CCC(F)(F)F)C(=O)N[C@@H]1C(=O)N(CCO)c2ncccc2-c2ccccc21 | 472 | 475 | 511
21 | Cc1ccc(-n2c(C)cc(-c3nnc4n3CCCCC4)c2C)cc1 | 575 | 595 | 647
22 | CC1(C)CC(O)CC(C)(C)N1[O] | 517 | 511 | 626
23 | CCOC(=O)C(C)OC1=CC=CC2=C1\C=C/N(CC(=O)NC3=CC=C4OCCOC4=C3)C2=O (configuration not stated) | 505 | 538 | 602
24 | CC(C)N1C(=O)NC(=C/C1=O)\N[C@@H](C)C2=CC=CC=C2 | 471 | 497 | 552
25 | COc1cc2ncnc(Nc3cccc(Br)c3)c2cc1OC | 395 | 527 | 583
26 | Cc1cccc(-c2nn3c(c2-c2ccnc4ccc(C(N)=O)cc24)CCC3)n1 | 546 | 575 | 628
27 | ClC1=CC=C2OC3=C(\N=C(NC3=O)\[C@@H]4CCCN4)C2=C1 | 410 | 534 | 601
28 | CC(=O)NC(CS)C(=O)O (configuration not stated) | 413 | 457 | 466
29 | FC(F)(F)c1ccc(/C=C/c2nc(COc3ccc(CCCCn4ccnn4)cc3)co2)cc1 | 265 | 531 | 596
30 | O=C(CN1C(=O)C2(CCCC2)NC[C@H]1c1cc(F)cc(F)c1)Nc1ccc2c(c1)C[C@@]1(C2)C(=O)Nc2ncccc21 | 463 | 515 | 565
31 | O=[N+]([O-])c1cn2c(n1)OC[C@@H](OCc1ccc(OC(F)(F)F)cc1)C2 | 528 | 523 | 574
32 | C/C=C/C[C@@H](C)C(=O)[C@H]1C(=O)N[C@@H](C(C)C)C(=O)N(C)CC(=O)N(C)[C@@H](CC(C)C)C(=O)N[C@@H](C(C)C)C(=O)N(C)[C@@H](CC(C)C)C(=O)N[C@@H](C)C(=O)N[C@H](C)C(=O)N(C)[C@@H](CC(C)C)C(=O)N(C)[C@@H](CC(C)C)C(=O)N(C)[C@@H](C(C)C)C(=O)N1C | 534 | 524 | 633
33 | COc1cc2ncnc(Nc3cc(Br)c(O)c(Br)c3)c2cc1OC | 523 | 581 | 650
34 | CCCC1=NC(=C2[N]1NC(=N\C2=O)/C3=CC(=CC=C3OCC)[S+]([O-])(=O)N4CCN(CC)CC4)C | 462 | 518 | 573
